From a melting point compilation (Tetko et al.; mined from patent text by program, amines drawn as free bases though some values may be those of a salt)

melting point [°C]	Structure (SMILES)
165 to 167	Cc1ccc(-c2coc(C=CC(=O)NC3CCC(CN(C)C4CCOCC4)CC3)c2)cc1 (stereo not drawn)
253 to 254	COc1ccc2c(=O)c3[nH]c(C(=O)O)cc(=O)c3oc2c1
230	COc1ccc2c(c1CC#N)Sc1c(ccc(OC)c1CN1C(=O)c3ccccc3C1=O)N2Cc1ccccc1
186	CCCC(c1ccc(NC(C)=O)cc1)n1ccnc1 (stereo not drawn)
75 to 78	COc1ccc2oc(C(=O)c3cc(F)ccc3F)cc2c1
182	CC12CCC(S(=O)(=O)C(F)(F)F)=CC1=CCC1C2CCC2(C)C(C(=O)O)CCC12 (stereo not drawn)
92	COC(=O)c1cc(C)ccc1NC(=O)N(C)C
233 to 234	OCCNc1ccnc2cc3c(cc12)OCO3
284 to 285	COc1cc2c(=O)c3c(Cl)ccc([N+](=O)[O-])c3[nH]c2cc1Cl
51 to 53	CC(CNC(=O)c1ccc(N2CCC(N3C(=O)C(F)(F)c4ccccc43)CC2)nn1)C1CC1 (stereo not drawn)
180 to 181	COc1cc(NC(=O)CC#N)c(Cl)cc1Cl
53	C[C@@H](OC(=O)N1C(C)(C)COC1(C)C)C(C)(C)O
188	CC(C)c1c(S(=O)(=O)c2ccc(O)cc2)n(C)c2ccccc12
122	CC1(C)COC(c2ccc3c(c2)C(=O)c2ccccc2CO3)=N1
161 to 164	CCOCc1nc2c(N)nc3ccccc3c2n1CCOCCNC(=O)NC1CCCCC1
143 to 144	Cc1ccc(-c2cccc3cc(Cc4cccc(C(F)(F)F)c4)sc23)cc1C(=O)NCC(N)=O
250	CCCCc1nc2c(C(=O)O)cccc2n1Cc1ccc(C(=O)O)cc1
246 to 248	Cc1c(Br)cccc1NS(=O)(=O)c1cc(S(=O)(=O)Nc2cccc(Br)c2C)c2ccccc2c1O
103 to 111	CCOC(=O)[C@H](Cc1cccc(OCc2ccc3ccccc3c2)c1)NC(=O)C(F)(F)F
161 to 164	O=C(NCC1CC2C=CC1C2)NS(=O)(=O)C=Cc1ccccc1 (stereo not drawn)
94 to 95	COc1ccc(C2(C#Cc3ccc(N4CN=C(C)O4)s3)CCC(=O)CC2)cc1OC1CCCC1
154 to 156	CC(=O)OC1CC2(CCN(CCCC(=O)c3ccc(F)cc3)C2)c2ccccc21 (stereo not drawn)
235 to 237	COc1cc2nc(N3CCN(C(=O)C=Cc4ccccn4)CC3)nc(N)c2cc1OC

melting point [°C]	Structure (SMILES)
110 to 113	CC(Cc1ccc(OCc2cccc(C(F)(F)F)c2)cc1)NC(=O)CC(c1ccccc1)c1ccccc1 (stereo not drawn)
192 to 194	Nc1cccc(-c2ccc(CCN3CC4C(C3)C4NC(=O)Nc3ccccc3)cc2)n1 (stereo not drawn)
133 to 141	COc1cc(OCc2ccncc2)ccc1/C=C/c1cc(/C=C/c2ccc3[nH]ccc3c2)n[nH]1
108 to 109	Cc1ccc(S(=O)(=O)OC[C@H]2CC[C@H](c3ccccc3)CC2)cc1
214 to 216	COc1ccc(C(=O)Oc2ccc(C(=O)O)cc2CO)cc1C12CC3CC(CC(C3)C1)C2
75	CN1C(=O)C(c2ccc(OC(F)F)cc2)(c2cccc(CCCC#N)c2)N=C1N (stereo not drawn)
285	O=C(Nc1ccccc1)Nc1ccc2ccc(-c3cccc(Br)c3)nc2n1
280	COc1ccc2[nH]cc(C3=C(c4c[nH]c5ccccc45)C(=O)NC3=O)c2c1
36 to 37	COc1cnccc1C(C)=O
85 to 86	CCCCCCCCCNC1=CC(=O)c2c(OC)ccc(OC)c2C1=O
188 to 190	O=C(O)c1cc(OCc2ccccc2)c(-c2ccccc2)c([N+](=O)[O-])c1
143 to 144	c1ccc(Cc2n[nH]c(NCCCOc3cccc(CN4CCCCC4)c3)n2)cc1
48 to 50	O=C(CCCCCCCCc1ccc(Cl)cc1)NO
215 to 216	CCCCC(=O)N1CCC(c2nc(-c3ccc(-c4ccccc4)cc3)c[nH]2)CC1
163 to 165	N=C(N)Nc1nc(CO)cs1
224 to 225	CC1(C)OC(=S)Nc2ccc(-c3cc(F)cc(F)c3)cc21
198 to 200	CCn1ncc(C(=O)c2ccc(S(C)(=O)=O)c(Cl)c2Cl)c1O
88 to 91	ClCc1cn(C(c2ccccc2)(c2ccccc2)c2ccccc2)cn1
170 to 172	CCCc1c(OCCCCCC(=O)c2ccc3cc(O)c(O)cc3c2)ccc(C(=O)OCC)c1O
177 to 179	Cc1c(CC(C)(C)C(=O)O)n(Cc2ccc(Cl)cc2)c2ccc(OCc3ccc(-c4ccccc4)cn3)cc12
194 to 196	O=C(NC(=O)c1c(F)cccc1F)Nc1ccc(Oc2ccc(Cl)cc2)c(Cl)c1
124 to 126	O=C(O)CC1CCC(CCNS(=O)(=O)c2ccc(Br)cc2)CC1 (stereo not drawn)
206	CC(C)n1cc(-c2nc(C(N)=O)c(N)nc2-c2ccccc2OC(F)(F)F)ccc1=O

melting point [°C]	Structure (SMILES)
150 to 152	CN(C)NC(=O)c1ccc(-c2ccc(Cl)cc2)o1
210 to 211	CCOCc1nc2c(N)nc3cccnc3c2n1CC(C)(C)NC(=O)C1CCCCC1
125 to 127	Cc1oncc1C(=O)N1CCC[C@H](c2nc(-c3ccc[nH]3)no2)C1
189 to 193	CC(=O)Nc1nc(Cl)c(NC=O)c(Cl)n1
74 to 75	CCCCCCCC(=O)Oc1c(OC)c(OC)c(OC(=O)CCCCCCC)c2cc(Cl)ccc12
112 to 115	O=C(O)c1cn(C2CC2)c2cc(N3CCNC(COc4ccccc4)C3)c(F)cc2c1=O (stereo not drawn)
355 to 357	COc1ccc(-n2c(=O)[nH]c3c(C(N)=O)nc(-c4cccc(O)c4)nc32)c(C)c1
255	O=C(NCCCCN1CCC(c2c[nH]c3ccccc23)CC1)c1ccc(-c2ccc(C(F)(F)F)cc2)cc1CO
181	CN(CCN1C(=O)c2ccccc2S1(=O)=O)C1COc2ccccc2O1 (stereo not drawn)
38.5 to 39.5	CCCCCCCCCCCCCCc1ccc(O)c(C(C)=O)c1
282 to 284	Cc1cc(C)c(Nc2nc(C)ncc2S(=O)(=O)c2ccc(-c3ncc[nH]3)cc2)c(C)c1
150 to 151	C[C@H](NC(=O)C[C@H](O)CC(=O)/C=C/c1c(C2CC2)nc2ccccc2c1-c1ccc(F)cc1)c1ccccc1
78 to 79	COC(=O)CCC(=O)Nc1cccnc1
174 to 175	CCOC(=O)c1cc2cc(F)cc(NS(=O)(=O)c3cccs3)c2[nH]1
166 to 167	CC(C#N)(NC(=O)c1c(Cl)cccc1Cl)c1ncc(C(F)(F)F)cc1Cl (stereo not drawn)
136	CNCc1nc(-c2cc(C(C)(C)C)c(O)c(C(C)(C)C)c2)cs1
192 to 193	COc1cccc(Nc2cc(-c3nnc(C)o3)ccn2)c1
233 to 235	Nc1ccc(Oc2c(NCc3ccco3)cc(C(=O)O)cc2S(N)(=O)=O)cc1
68 to 69	CCOC(=O)OCC1(C)COC(=O)OC1
91.5 to 92.5	COC(=O)c1cc(OC)c(OC)cc1OC
167 to 170	COc1nc(C)nc(NC(=O)NS(=O)(=O)c2ccccc2C(=O)OCCCl)n1
251 to 252	O=c1[nH]c(Cl)nc2ccccc12
145 to 147	CCC(=O)OCC(=O)Nc1nc2ccc(OC)cc2s1

melting point [°C]	Structure (SMILES)
52 to 55	COc1ccc(OC)c(COc2cc(Cl)sn2)c1
129 to 133	Cc1ccc(S(=O)(=O)c2ccc3c(c2)c(CCN(C)C(=O)OC(C)(C)C)c(C)n3C)cc1
221	CC(C)(C)c1cc(/C=C/c2nnc(N)o2)cc(C(C)(C)C)c1O
207 to 210	C=CCc1cn2c(=O)c(C(=O)O)cnc2c2cc(OC)ccc12
157 to 160	N=C(N)Nc1ccc(CCCC(=O)NC(COCc2ccccc2)C(=O)NCCCC(CCCNC(=O)OCc2ccccc2)NC(=O)OCc2ccccc2)cc1 (stereo not drawn)
170 to 172	Cc1noc2c(Oc3ncccc3C(=O)NCC3CCC(C(C)(C)O)CC3)cccc12 (stereo not drawn)
92 to 93	Cc1cccc(SCc2c(C(C)C)nc(C(C)C)c(CO)c2-c2ccc(F)cc2)c1
235 to 236	COc1ccc2c(Cc3ccc(O)cc3)c(-c3ccccc3)c(=O)oc2c1
179 to 180	Cn1c(Cl)cnc1C(c1cc(F)ccc1F)S(=O)(=O)c1ccc(Cl)cc1 (stereo not drawn)
110 to 113	CCCOC(=O)N(C)S(=O)(=O)c1cc([N+](=O)[O-])c(N(CCC)CCC)c([N+](=O)[O-])c1
> 260	Oc1ccc(C(=C2CCNCC2)c2ccccc2)cc1
197	COc1cccc(-c2nc(N)nc(Nc3cccc([N+](=O)[O-])c3)n2)c1
100 to 106	COC(=O)COc1ccc(CC2SC(=O)NC2=O)cc1 (stereo not drawn)
116 to 118	Cc1ccc(C(=O)c2ccc(CC#N)n2C)c(Cl)c1
159 to 160	CCCCCCC(C(C)O)n1cnc(C(N)=O)c1N (stereo not drawn)
58	CC(=O)COc1ccc(C2CCCCC2)cc1
136 to 138	CCN(CC)c1ccc2c(-c3ccc(C#Cc4ccccc4)cc3)cc(=O)oc2c1
90	O=C(c1ccccc1)C1OC1c1ccccc1 (stereo not drawn)
168 to 170	CS(=O)CCNC(=O)CC(O)(Cn1cncn1)c1ccc(Cl)cc1Cl (stereo not drawn)
105 to 109	Cc1cc(CN2C(=O)C(C3=NS(=O)(=O)c4c(CN(C)S(C)(=O)=O)cccc43)=C(O)C2C(C)(C)C)ccc1F (stereo not drawn)
136 to 137	CS(=O)(=O)c1nccc(-c2ccccc2)n1
271 to 274	O=C1NC(=O)C(c2cc(F)cc(F)c2)(c2cc(F)cc(F)c2)N1

Structure (SMILES)	melting point [°C]
COc1ccc(CN2CCc3ncccc3C2)cc1OC	76 to 77
CNC1=Nc2ccc([N+](=O)[O-])cc2C(c2ccccc2Cl)=NC1	219 to 221
Cn1c(=O)c2c(ncn2CCN2CC=C(c3c[nH]c4ccccc34)CC2)n(C)c1=O	196
O=C1CN=C(c2ccccc2Cl)c2ccccc2N1	109 to 111
CN1CC=C(c2cccc3ccc(N(Cc4ccccc4)Cc4ccccc4)cc23)CC1	124 to 126
O=C1O[C@@H]2C[C@@]1(O)c1cc(Cc3ccccc3)sc1[C@H]2O	116 to 118
CN(SC(Cl)(Cl)Cl)S(=O)(=O)C(Cl)=C(Cl)Cl	57 to 58
